{
  "source": "patent US20090155828A1",
  "about": "“METHODS OF DETECTING PROSTATE CANCER” (The Burnham Institute for Medical Research, priority 2001, published 2009)",
  "key": {"tumor cells in culture": {"test_system": "tumor cells in culture", "conditions": "cited from earlier work; for Apoptosis of tumor cells: tumor / cancer cells in culture"}, "[1]": {"test_system": "DPP-like activity in LNCaP soluble fraction", "experiment": "Inhibition of DPP-like activity with isoleucine thiozolidide, fp-PEG-Tamra labeling, LNCaP soluble fraction", "assay_type": "biochemical, human", "conditions": "for Reaction of fp-PEG-Tamra probe with DPP-like protein (words): LNCaP lysate preincubated with IT, 97 kDa band", "procedure": "(§1) . Each lysate was pre-incubated with 100 TM IT for 20 min at RT. Residual DPP-like activity was evaluated by treatment with 2 TM fp-PEG-Tamma, as described above, followed by resolution with 10% SDS-PAGE and comparison to samples not treated with IT. Inhibition of DPP activity was quantified by measuring the fluorescence intensity of the conjugate between fp-PEG-TAMRA and the DPP. The activity of a non-DPP enzyme was used to standardize the specific effects if IT.\n(§2) One member of this family, DPP-IV, has been investigated as a target in type II diabetes. As a result of those investigations, several peptidic antagonists of DPP IV have been synthesized (Pederson et al., Diabetes 47:1253-58; 1998; Pauly et al., Metabolism 48(3):385-389, 1999). […]. The sensitivity of enzyme activity to IT was tested in the soluble fractions of the LNCaP, DU-145, and PC-3 prostate cancer cells lines. Each lysate was pre-incubated with 100 TM IT for 20 min at RT. Residual DPP-like activity was evaluated by the addition of 2 TM fp-PEG-Tamra, followed by resolution with 10% SDS-PAGE and comparison to the non-treated samples. […]. […] Specific labeling was determined by comparison to preheated controls.\nIn each of the three prostate cancer cell lines, a novel protein with homology to DPP was identified using MS/MS. The similarity to DPP was based on fold and function assignment of the corresponding cDNA and its cognate protein (Zhang et al., Prot. Sci. 8:1104-1115, 1999). […]."}, "[2]": {"test_system": "non-DPP proteins (other serine hydrolase activity)", "experiment": "Specificity of IT: fp-PEG-Tamra labeling of non-DPP serine hydrolases in prostate cancer cell lysates", "assay_type": "biochemical, human", "conditions": "soluble fractions of LNCaP, DU-145, PC-3, 100 TM IT", "procedure": "as §1, §2\nIn each of the three prostate cancer cell lines, a novel protein with homology to DPP was identified using MS/MS. […]"}, "tumor growth": {"test_system": "tumor growth", "conditions": "cited from earlier work"}, "[3]": {"test_system": "prolyl endopeptidase (PEP)", "experiment": "Prolyl endopeptidase activity in DHT treated LNCaP cells, fp-PEG-Tamra profile", "assay_type": "cell-based, human", "conditions": "six days", "procedure": "(§3) Serine hydrolase activity profiles of the prostate cell lines were measured using the labeled fluorophosphonate probe fp-PEG-Tamra. Briefly, 40 μg of either the soluble or insoluble fractions were treated with 2 μM fp-PEG-Tamra for 1 hr at RT. The labeling reactions were stopped by the addition of Laemmli buffer followed by boiling for 5 min. As a control for non-specific reaction of the probe, a duplicate sample was boiled for 10 min prior to labeling with fp-PEG-Tamra. The labeled samples were resolved by 10% SDS-PAGE and visualized by scanning with a laser at 605 nm.\n(§4) It is well established that androgen (DHT) specifically, promotes proliferation of LNCaP cells in vitro. While the direct cause for this is not completely understood, it is clear that changes in gene and protein levels are associated with proliferation. As such, it was hypothesized that androgen treatment of LNCaP cells would change the aggregate activity profile. […] LNCaP cell proliferation was measured in the presence of either 0.1 nM or 100 nM DHT. […] Cells were counted using a hemocytometer. On day six, the aggregate serine hydrolase activity profiles were also measured. […] Specific labeling was assessed by comparison to a preheated control."}, "PSA mRNA": {"test_system": "PSA mRNA", "experiment": "PSA mRNA level in DHT treated LNCaP cells by real time PCR", "assay_type": "cell-based, human", "procedure": "(§5) The serine hydrolase activity levels in the four prostate cell lines, or the change in serine hydrolase activity with DHT treatment, as assessed by fp-PEG-Tamra, was compared to the mRNA level of the cognate enzymes. Total RNA was isolated with Trizol (Life Technologies) from LNCaP, LNCaP treated with DHT, DU-145, PC-3 or PrEC cell lines. Reverse transcription was performed with Superscript II. Real time PCR was performed using the Roche SYBER Green DNA kit and a Roche LightCycler according to manufacturer instructions. Primers (20mers) were used at a final concentration of […], and 45 cycles were used."}, "[4]": {"test_system": "N-acyl peptide hydrolase (NAPH)", "experiment": "N-acyl peptide hydrolase activity in DHT treated LNCaP cells, fp-PEG-Tamra profile", "assay_type": "cell-based, human", "conditions": "100 nM DHT, six days", "procedure": "as §3, §4"}, "PSA": {"test_system": "PSA", "experiment": "PSA activity in DHT treated LNCaP cells, fp-PEG-Tamra profile", "assay_type": "cell-based, human", "conditions": "six days", "procedure": "as §3, §4"}, "LNCaP cells": {"test_system": "LNCaP cells", "experiment": "Androgen effects on LNCaP cell proliferation", "assay_type": "cell-based, human", "conditions": "six days", "procedure": "LNCaP cell proliferation was measured in the presence of either 0.1 nM or 100 nM DHT. Cells were plated in 24 well plates in RPMI 1640 with no phenol red and supplemented with charcoal stripped FBS and allowed to adhere overnight. The following day media was replaced, with or without DHT, and cells were grown for six days with media change every second day. Cells were counted using a hemocytometer.\nIn order to assess the effects of androgen (DHT) treatment on cell proliferation, LNCaP cells were plated in either 150 mm dishes (Falcon) or in 12 well tissue culture plates (Falcon) in complete medium. After 24 hr, the medium was replaced with RPMI containing no phenol red and supplemented with 10% charcoal stripped fetal bovine serum and the appropriate concentration of DHT. The medium was replaced every 48 hr for six days. At the indicated time points, the cells were removed by treatment with trypsin-EDTA and counted with a hemocytometer.\nIt is well established that androgen (DHT) specifically, promotes proliferation of LNCaP cells in vitro. […] LNCaP cell proliferation was measured in the presence of either 0.1 nM or 100 nM DHT. […] Cells were counted using a hemocytometer. On day six, the aggregate serine hydrolase activity profiles were also measured. […] Specific labeling was assessed by comparison to a preheated control."}, "[5]": {"test_system": "fatty acid synthase (FAS)", "experiment": "Fatty acid synthase activity in DHT treated LNCaP cells, fp-PEG-Tamra profile", "assay_type": "cell-based, human", "conditions": "six days", "procedure": "as §3, §4"}, "PEP mRNA": {"test_system": "PEP mRNA", "experiment": "PEP mRNA level in DHT treated LNCaP cells by real time PCR", "assay_type": "cell-based, human", "conditions": "100 nM DHT", "procedure": "as §5"}, "NAPH mRNA": {"test_system": "NAPH mRNA", "experiment": "NAPH mRNA level in DHT treated LNCaP cells by real time PCR", "assay_type": "cell-based, human", "conditions": "100 nM DHT", "procedure": "as §5"}, "[6]": {"conditions": "listed as isoleucine thiazolidide"}},
  "note": "“Also recorded” adds a separate entry of the source.",
  "data": [
    {"smiles": "C=C1C(=O)OC(CCCCCCCC)C1C(=O)O", "note": "(centres unmarked) [Compound C75]", "values": [
      {"measurement": "Cytotoxicity to cancer cells", "setting": "tumor cells in culture", "result": "cytotoxic"},
      {"measurement": "Apoptosis of tumor cells", "setting": "tumor cells in culture", "result": "in some cases induce apoptosis"}
    ]},
    {"smiles": "CC[C@H](C)[C@H](N)C(=O)N1CCSC1", "note": "[IT, isoleucine thiazolidide]", "values": [
      {"measurement": "Reaction of fp-PEG-Tamra probe with DPP-like protein (words)", "setting": "[1]", "result": "inhibited"},
      {"measurement": "Reaction of fp-PEG-Tamra probe with DPP-like protein (words)", "setting": "[1]; [6]", "result": "dramatically reduced"},
      {"measurement": "DPP-like activity inhibited", "setting": "[1]; LNCaP soluble fraction, pre-incubated with 100 TM IT 20 min RT, 2 TM fp-PEG-Tamra", "result": 63, "unit": "%"},
      {"measurement": "Inhibition of non-DPP proteins / other serine hydrolase activity", "setting": "[2]", "result": "No inhibition; also recorded: no other serine hydrolase activity was reduced"},
      {"measurement": "Inhibition of non-DPP proteins / other serine hydrolase activity", "setting": "[2]; [6]", "result": "No other enzyme activities were inhibited"}
    ]},
    {"smiles": "C/C=C/C/C=C/CCC(=O)[C@H]1O[C@H]1C(N)=O", "note": "[cerulenin]", "values": [
      {"measurement": "Tumor growth in nude mice", "setting": "tumor growth", "result": "inhibit tumor growth"},
      {"measurement": "Cytotoxicity to cancer cells", "setting": "tumor cells in culture", "result": "cytotoxic"},
      {"measurement": "Apoptosis of tumor cells", "setting": "tumor cells in culture", "result": "induces apoptosis; also recorded: in some cases induce apoptosis"}
    ]},
    {"smiles": "C[C@]12CCC(=O)C[C@@H]1CC[C@@H]1[C@@H]2CC[C@]2(C)[C@@H](O)CC[C@@H]12", "note": "[DHT]", "values": [
      {"measurement": "Change of PEP activity", "setting": "[3]; 0.1 nM DHT", "result": "decreased"},
      {"measurement": "Change of PEP activity", "setting": "[3]; 100 nM DHT", "result": "dramatic drop"},
      {"measurement": "Change of PSA mRNA level", "setting": "PSA mRNA; 0.1 nM DHT, six days", "result": "increased over eleven-fold"},
      {"measurement": "Change of PSA mRNA level", "setting": "PSA mRNA; 100 nM DHT", "result": "large increase"},
      {"measurement": "Change of NAPH activity", "setting": "[4]", "result": "dramatic drop"},
      {"measurement": "Change of PSA activity", "setting": "PSA; 0.1 nM DHT", "result": "no noticeable change"},
      {"measurement": "Change of PSA activity", "setting": "PSA; 100 nM DHT", "result": "increased"},
      {"measurement": "LNCaP cell proliferation", "setting": "LNCaP cells; 0.1 nM DHT", "result": "promoted cell proliferation"},
      {"measurement": "LNCaP cell proliferation", "setting": "LNCaP cells; 100 nM DHT", "result": "cell proliferation was inhibited"},
      {"measurement": "Change of FAS activity", "setting": "[5]; 0.1 nM DHT", "result": "increased three-fold to five-fold"},
      {"measurement": "Change of FAS activity", "setting": "[5]; 100 nM DHT", "result": "increased"},
      {"measurement": "Change of PEP mRNA level", "setting": "PEP mRNA", "result": "increased"},
      {"measurement": "Change of NAPH mRNA level", "setting": "NAPH mRNA", "result": "slightly greater than two-fold"}
    ]}
  ]
}
